Assay results reported in patent publication US12590099B2, “Inhibitors of histone deacetylase useful for the treatment or prevention of HIV infection” (Merck Sharp & Dohme LLC, priority 2018, dated 2026).
Read-outs that look alike come from different tables or passages of the source.

Legend:
[1] = molecular target: T1, Recombinant human HDAC2 (Homo sapiens, UniProt Q92769); assay: Human HDAC enzyme inhibitor Fluor-de-Lys assay, HDAC2; format: biochemical; settings: recombinant human HDAC2, Fluor-de-Lys assay
T1 construct: Full length human HDAC2-FLAG was expressed in baculovirus infected Sf9 cells; FLAG (C); made in house; host or cells: Sf9 (baculovirus)
T1 sequence (Q92769 whole entry): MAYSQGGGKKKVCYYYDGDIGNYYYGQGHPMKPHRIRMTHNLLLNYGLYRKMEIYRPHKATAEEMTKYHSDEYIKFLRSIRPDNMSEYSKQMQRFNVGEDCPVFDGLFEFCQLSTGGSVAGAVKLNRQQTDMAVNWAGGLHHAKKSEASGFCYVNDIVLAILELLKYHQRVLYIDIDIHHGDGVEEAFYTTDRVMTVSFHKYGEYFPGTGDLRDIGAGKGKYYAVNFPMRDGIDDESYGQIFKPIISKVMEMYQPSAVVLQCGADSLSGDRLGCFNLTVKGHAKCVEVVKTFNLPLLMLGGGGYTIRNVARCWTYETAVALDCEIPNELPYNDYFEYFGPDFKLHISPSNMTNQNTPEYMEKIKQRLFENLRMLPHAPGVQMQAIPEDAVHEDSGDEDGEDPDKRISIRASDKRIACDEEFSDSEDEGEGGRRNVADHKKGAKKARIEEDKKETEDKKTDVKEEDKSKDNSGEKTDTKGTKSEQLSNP
Summary of the method: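 Fluor-de-Lys format at room temperature (23° C.): compounds titrated 10-point, 1:3, preincubated with HDAC before substrate addition. Developer with excess HDAC inhibitor ends the reaction, and trypsin-liberated AMC fluorescence is the read-out.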

[2] = molecular target: T2, Recombinant human HDAC3/SMRT heterodimer (Homo sapiens, UniProt O15379); assay: Human HDAC enzyme inhibitor Fluor-de-Lys assay, HDAC3/SMRT; format: biochemical; settings: recombinant human HDAC3/SMRT, Fluor-de-Lys assay
T2 construct: FLAG (C); made in house
T2 sequence (O15379 whole entry): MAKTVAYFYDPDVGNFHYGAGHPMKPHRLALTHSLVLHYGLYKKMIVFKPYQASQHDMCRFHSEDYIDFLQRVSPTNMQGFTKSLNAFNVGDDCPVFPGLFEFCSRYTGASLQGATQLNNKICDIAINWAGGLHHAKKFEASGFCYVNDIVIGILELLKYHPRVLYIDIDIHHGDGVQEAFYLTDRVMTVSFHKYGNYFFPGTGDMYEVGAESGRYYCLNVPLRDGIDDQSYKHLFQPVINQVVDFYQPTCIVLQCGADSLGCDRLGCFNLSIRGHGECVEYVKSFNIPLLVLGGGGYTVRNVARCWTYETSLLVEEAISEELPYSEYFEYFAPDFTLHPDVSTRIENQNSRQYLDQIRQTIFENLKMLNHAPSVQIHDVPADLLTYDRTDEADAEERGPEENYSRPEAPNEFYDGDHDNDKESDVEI
T2 sequence (Q9Y618 1-899 partner limits assumed): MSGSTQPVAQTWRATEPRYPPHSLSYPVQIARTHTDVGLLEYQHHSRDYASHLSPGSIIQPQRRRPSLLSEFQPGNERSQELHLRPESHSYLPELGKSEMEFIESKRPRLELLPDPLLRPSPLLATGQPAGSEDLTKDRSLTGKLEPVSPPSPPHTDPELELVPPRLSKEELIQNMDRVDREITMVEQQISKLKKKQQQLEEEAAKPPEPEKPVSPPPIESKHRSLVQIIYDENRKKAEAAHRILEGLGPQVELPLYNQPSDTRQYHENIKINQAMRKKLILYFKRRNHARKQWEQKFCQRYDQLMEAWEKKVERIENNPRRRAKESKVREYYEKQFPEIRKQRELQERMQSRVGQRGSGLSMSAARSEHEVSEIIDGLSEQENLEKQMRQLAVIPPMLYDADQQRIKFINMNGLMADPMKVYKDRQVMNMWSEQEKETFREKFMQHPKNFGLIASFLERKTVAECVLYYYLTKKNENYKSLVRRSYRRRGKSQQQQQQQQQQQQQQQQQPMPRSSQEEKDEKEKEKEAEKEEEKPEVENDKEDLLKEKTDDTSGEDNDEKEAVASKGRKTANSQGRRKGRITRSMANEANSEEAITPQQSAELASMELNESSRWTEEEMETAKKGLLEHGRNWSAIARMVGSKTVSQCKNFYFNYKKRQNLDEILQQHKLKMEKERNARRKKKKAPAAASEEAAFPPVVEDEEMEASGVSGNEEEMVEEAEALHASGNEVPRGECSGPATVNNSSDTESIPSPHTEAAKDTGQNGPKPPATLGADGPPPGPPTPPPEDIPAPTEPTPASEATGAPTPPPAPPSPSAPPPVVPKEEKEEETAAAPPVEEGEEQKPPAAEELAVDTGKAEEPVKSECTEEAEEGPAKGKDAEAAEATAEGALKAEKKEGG

[3] = test system: KARN cells (Jurkat 2C4); assay: cells; format: cell-based; settings: Homo sapiens, Jurkat, luciferase induction, 100% = 2 μM SAHA
Summary of the method: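 Luminescence (Steady-Glo, 10 min, room temperature) measured next day in KARN Jurkat 2C4 cells given compounds at up to 40 μM final with 0.4% DMSO. Percent activation normalised to DMSO (0%) and 2 μM SAHA (100%), fitted by 4-parameter curve.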

[4] = molecular target: T3, Recombinant human HDAC1 (Homo sapiens, UniProt Q13547); assay: Human HDAC enzyme inhibitor Fluor-de-Lys assay, HDAC1; format: biochemical; settings: recombinant human HDAC1, Fluor-de-Lys assay
T3 construct: FLAG (C); made in house
T3 sequence (Q13547 whole entry): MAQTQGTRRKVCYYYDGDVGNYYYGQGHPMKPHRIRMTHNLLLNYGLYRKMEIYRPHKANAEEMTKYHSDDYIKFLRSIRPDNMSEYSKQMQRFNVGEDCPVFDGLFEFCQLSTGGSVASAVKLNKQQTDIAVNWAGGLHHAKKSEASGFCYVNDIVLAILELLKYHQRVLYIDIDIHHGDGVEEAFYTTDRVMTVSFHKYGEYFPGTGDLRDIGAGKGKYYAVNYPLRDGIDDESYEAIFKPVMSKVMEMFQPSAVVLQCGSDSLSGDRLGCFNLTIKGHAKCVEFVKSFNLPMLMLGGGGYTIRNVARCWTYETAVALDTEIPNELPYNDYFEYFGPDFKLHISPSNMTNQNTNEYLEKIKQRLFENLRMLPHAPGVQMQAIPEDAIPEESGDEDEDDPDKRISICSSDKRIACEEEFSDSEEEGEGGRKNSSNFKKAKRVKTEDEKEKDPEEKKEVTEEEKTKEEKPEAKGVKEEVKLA
Summary of the method: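 Fluor-de-Lys format at room temperature (23° C.): compounds titrated 10-point, 1:3, preincubated with HDAC before substrate addition; HDAC1 run at 0.3 nM enzyme with 20 μM BML-KI104. Developer with excess HDAC inhibitor ends the reaction, and trypsin-liberated AMC fluorescence is the read-out.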

[5] = read-out: Karn EC50 (nM) 0.1% NHS, 0.1% normal human serum
[6] = read-out: Karn EC50 (nM) 5% NHS, 5% normal human serum

Structure (SMILES)	IC50 [1] [nM]	IC50 [2] [nM]	EC50 [3, 5] [nM]	EC50 [3, 6] [nM]	IC50 [4] [nM]
CCC(=O)CCCCC[C@H](NC(=O)C1(N)CC2(CN(C)C2)C1)c1ncc(-c2cc3ccccc3nc2OC)[nH]1 [Compound 276]	9.1	1.57	1560	4780	1.56
CCC(=O)CCCCC[C@H](NC(=O)[C@H]1CC12CCN(C)CC2)c1ncc(-c2ccc(F)cc2)[nH]1 [Compound 280]	122	10.6	1020	919	30
CCC(=O)CCCCC[C@H](NC(=O)[C@H]1CC12CCN(C)CC2)c1ncc(-c2ccc(C(F)(F)F)cc2)[nH]1 [Compound 284]	82.1	6.09	606	598	18.6
CCC(=O)CCCCC[C@H](NC(=O)[C@H]1CC12CCN(C)CC2)c1ncc(-c2ccc(F)cc2F)[nH]1 [Compound 289]	259	21.7	1060	1090	63.1
CCC(=O)CCCCC[C@H](NC(=O)[C@H]1CC12CCN(C)CC2)c1ncc(-c2ccccc2F)[nH]1 [Compound 290]	73.5	4.08	415	519	15.4
CCC(=O)CCCCC[C@H](NC(=O)CC1CC2(CNC2)C1)c1ncc(-c2ccccc2)[nH]1 [Compound 297]	120	9.69	5840	15800	27.9
CCC(=O)CCCCC[C@@H](NC(=O)C1CCC2(CC1)CNC2)c1ncc(-c2ccccc2)[nH]1 [Compound 298]	144	10.4	7010	11800	36.5
CCC(=O)CCCCC[C@H](NC(=O)C1CCC2(CC1)CNC2)c1nnc(-c2cc3ccccc3nc2OC)o1 [Compound 299]	35.8	6.56	7000	9270	12.2
CCC(=O)CCCCC[C@H](NC(=O)CC1CC2(C1)CN(C(C)=O)C2)c1ncc(-c2ccccc2)[nH]1 [Compound 300, (S)-2-(2-acetyl-2-azaspiro[3.3]heptan-6-yl)-N-(7-oxo-1-(5-phenyl-1H-imidazol-2-yl)nonyl)acetamide]	802	38.7	9210	10200	199
CCC(=O)CCCCC[C@H](NC(=O)CC1CC2(CNC2)C1)c1nnc(-c2cc3ccccc3nc2OC)o1 [Compound 301]	77.6	15.8	24200		24.6
CCC(=O)CCCCC[C@H](NC(=O)C1CC12CCNCC2)c1nnc(-c2cc3ccccc3nc2OC)o1 (stereo partly drawn) [Compound 303]	40.5	10.5	2430	4260	17.2
CCC(=O)CCCCC[C@H](NC(=O)CC1CC2(C1)CN(C)C2)c1ncc(-c2ccccc2)[nH]1 [Compound 307]	617	16.9	3700	2570	62.9
CCC(=O)CCCCC[C@H](NC(=O)CC1CC2(C1)CN(C)C2)c1nnc(-c2cc3ccccc3nc2OC)o1 [Compound 308]	97.7	27.4	2690	3700	27.3
CCC(=O)CCCCC[C@@H](NC(=O)C1CCC2(CC1)CN(C)C2)c1ncc(-c2ccccc2)[nH]1 [Compound 310]	167	10.4	1490	1920	33
CCC(=O)CCCCC[C@H](NC(=O)C1NC(=O)CC12CN(C)C2)c1ncc(-c2cc3ccccc3nc2OC)[nH]1 (stereo partly drawn) [Compound 317]	5	0.84	591	1720	0.87
CCC(=O)CCCCC[C@H](NC(=O)CC1CC2(C1)CN(C)C2)c1ncc(-c2cc3ccccc3nc2O)[nH]1 [Compound 326]	9	1.58	2400	3820	3.27
CCC(=O)CCCCC[C@H](NC(=O)[C@H]1CC12CCN(CC)CC2)c1ncc(-c2cnc3cc(C(F)(F)F)ccc3c2)[nH]1 [Compound 341]	2.5	0.43	44	70	0.42
CCC(=O)CCCCC[C@H](NC(=O)[C@H]1CC12CCN(C)CC2)c1ncc(-c2ccc3ccc(C)nc3c2F)[nH]1 [Compound 354]	11.3	2.18	264	295	1.82
CCC(=O)CCCCCC(NC(=O)C1CCC2(CC1)OC(=O)c1ccncc12)c1nnc(-c2cc3ccccc3nc2OC)o1 (stereo not drawn) [Compound 363]	234	33.5	2080	4810	85.5
CCC(=O)CCCCCC(NC(=O)C1CCC2(CC1)OC(=O)c1cnccc12)c1nnc(-c2cc3ccccc3nc2OC)o1 (stereo not drawn) [Compound 364]	248	21.8	1770	4310	63
